Test results reported in the NIST ThermoML archive (doi:10.1016/j.jct.2019.03.024).
Numbers after ± are expanded uncertainties.

Columns and labels:
[1] = refractive index (Na D-line) (dimensionless); conditions: 298.15 K; 86.5 kPa; Liquid; Standard Abbe refractometry
[2] = 298.15 K, 86.5 kPa, Liquid

refractive index [1]: 1.5217 ± 0.02 | speed of sound ([2]; Frequency=3 MHz, Single path-length method): 1561.8 ± 2.2 m/s | mass density ([2]; Vibrating tube method): 1172.98 ± 2.3 kg/m3
Structure (SMILES): CCCCCCCCn1cc[n+](C)c1.[Br-] [1-methyl-3-octylimidazolium bromide]
